In patent US10766902B2, “Wee-1 inhibiting pyrazolopyrimidinone compounds” (ALMAC DISCOVERY LIMITED, priority 2016, dated 2020) one finds IC50 data, which are given here for nine compounds.

The target in the test is Wee-1 kinase (Homo sapiens (Human), UniProt P30291). Briefly: Measurement of Wee-1 kinase activity (ADP-Glo luminescence). Particulars: read-out: Wee1 IC50. Type of test: biochemical. The protocol:
Method 1: Measurement of Wee-1 Kinase Activity
In the measurement of Wee-1 activity, a commercial peptide Poly(Lys Tyr(4:1)) hydrobromide was purchased from Sigma Aldrich and used as the substrate. Activated Wee-1 kinase was purchased from Invitrogen (PV3817) and an ADP-Glo luminescent kit was purchased from Promega.
All reactions took place in […] volumes in reaction buffer containing 40 mM Tris-HCl and 20 mM magnesium chloride, supplemented with 0.1 mg/mL bovine serum albumin and 2 mM DTT. Compounds were serially diluted in buffer and 5 μL of each concentration pipetted into a white 384 well plate (Sigma Aldrich M6186). A 5 μL aliquot of the Wee-1 enzyme was added to each well and the plate centrifuged for 1 min to ensure mixing of the enzyme and inhibitor.
The plate was incubated at room temperature for 30 minutes before the addition of 2.0 μg/mL of substrate and 30 μM ATP in a 5 μL aliquot. The plate was centrifuged for one minute and incubated for 1 h at RT.
15 μL of ADP-Glo stop reagent was added to each well to quench the reaction and deplete unconverted ATP. The plate was incubated for a further 40 min in the dark at RT.
30 μL of ADP-Glo kinase detection reagent was added to each well, converting ADP to ATP, catalysing the generation of luciferin by luciferase. The plate was shaken for 1 min, and incubated in the dark for an additional hour.
Luminescence from each well was detected using the Biotek Synergy4 HD plate reader and the percentage inhibition of kinase activity calculated for each inhibitor tested. Positive (kinase only) and negative (no kinase) controls were added to each plate to ensure specific interaction of kinase and inhibitor. The IC50 concentration for each inhibitor was calculated by plotting the percentage kinase inhibition against concentration of inhibitor and the curve generated by non-linear regression fitting.
A general note: ADP-Glo first removes unused ATP, then detects ADP through luciferase.

Sequence of Wee-1 kinase (P30291 whole entry): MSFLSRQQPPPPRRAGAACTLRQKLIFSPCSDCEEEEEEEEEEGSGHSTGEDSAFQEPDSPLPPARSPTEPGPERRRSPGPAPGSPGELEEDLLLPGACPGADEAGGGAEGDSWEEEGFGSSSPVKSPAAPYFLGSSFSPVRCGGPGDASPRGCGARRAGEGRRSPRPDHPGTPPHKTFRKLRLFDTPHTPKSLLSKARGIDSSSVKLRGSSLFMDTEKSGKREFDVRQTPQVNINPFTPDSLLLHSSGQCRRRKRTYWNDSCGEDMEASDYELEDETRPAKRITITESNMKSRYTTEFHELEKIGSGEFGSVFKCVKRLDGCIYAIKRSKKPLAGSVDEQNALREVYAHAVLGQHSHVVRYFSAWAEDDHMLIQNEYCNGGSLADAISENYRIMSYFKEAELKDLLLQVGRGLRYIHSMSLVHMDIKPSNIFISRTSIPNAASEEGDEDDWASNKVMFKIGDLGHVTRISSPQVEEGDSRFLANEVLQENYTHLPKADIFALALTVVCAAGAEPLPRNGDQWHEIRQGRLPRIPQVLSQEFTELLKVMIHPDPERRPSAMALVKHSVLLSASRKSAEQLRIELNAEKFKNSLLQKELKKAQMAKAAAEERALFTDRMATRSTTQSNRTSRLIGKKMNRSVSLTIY

The IC50 is the concentration at which inhibition is half-maximal. As for `C=CCn1c(=O)c2cnc(Nc3ccc(N(C)C)c(C(O)C(F)(F)F)c3)nc2n1-c1cccc(N=S(C)(C)=O)n1` (racemic) [Example 83, rac-1-(6-{[Dimethyl(oxo)-λ^6-sulfanylidene]amino}pyridin-2-yl)-6-{[4-(dimethylamino)-3-(2,2,2-trifluoro-1-hydroxyethyl)phenyl]amino}-2-(prop-2-en-1-yl)-1H,2H,3H-pyrazolo[3,4-d]pyrimidin-3-one], the IC50 was 0.4 nM.
Next, `C=CCn1c(=O)c2cnc(Nc3ccc(N4CCNC(C(F)(F)F)C4)cc3)nc2n1-c1cncc(N=S(C)(C)=O)n1` (racemic) [Example 93, rac-1-(6-{[Dimethyl(oxo)-λ^6-sulfanylidene]amino}pyrazin-2-yl)-2-(prop-2-en-1-yl)-6-({4-[3-(trifluoromethyl)piperazin-1-yl]phenyl}amino)-1H,2H,3H-pyrazolo[3,4-d]pyrimidin-3-one]: 0.4 nM; `C=CCn1c(=O)c2cnc(Nc3ccc(N4CCN(C)CC4)cc3)nc2n1-c1cccc(S(C)(=O)=NC#N)n1` (stereo not drawn) [Example 1, 1-{6-[(Cyanoimino)(methyl)oxo-λ^6-sulfanyl]pyridin-2-yl}-6-{[4-(4-methylpiperazin-1-yl)phenyl]amino}-2-(prop-2-en-1-yl)-1H,2H,3H-pyrazolo[3,4-d]pyrimidin-3-one]: 1.1 nM; `C=CCn1c(=O)c2cnc(Nc3ccc(N4CCNCC4)cc3)nc2n1-c1cccc(N=S(C)(C)=O)n1` [Example 6, 1-(6-{[Dimethyl(oxo)-λ^6-sulfanylidene]amino}pyridine-2-yl)-6-{[4-(piperazin-1-yl)phenyl]amino}-2-(prop-2-en-1-yl)-1H,2H,3H-pyrazolo[3,4-d]pyrimidin-3-one]: 1.8 nM.
Next, `C=CCn1c(=O)c2cnc(Nc3ccc(N4CCN(C5CC5)CC4)cc3)nc2n1-c1cccc(N=S(C)(C)=O)n1` [Example 8, 6-{[4-(4-Cyclopropylpiperazin-1-yl)phenyl]amino}-1-(6-{[dimethyl(oxo)-λ^6-sulfanylidene]amino}pyridine-2-yl)-2-(prop-2-en-1-yl)-1H,2H,3H-pyrazolo[3,4-d]pyrimidin-3-one]: 0.3 nM; `C=CCn1c(=O)c2cnc(Nc3ccc(N4CCN[C@H](C)C4)cc3)nc2n1-c1cccc(N=S(C)(C)=O)n1` [Example 9, 1-(6-{[Dimethyl(oxo)-λ^6-sulfanylidene]amino}pyridine-2-yl)-6-({4-[(3R)-3-methylpiperazin-1-yl]phenyl}amino)-2-(prop-2-en-1-yl)-1H,2H,3H-pyrazolo[3,4-d]pyrimidin-3-one]: 1.5 nM.
In the case of `C=CCn1c(=O)c2cnc(Nc3ccc(N4CCN(CC)CC4)cc3)nc2n1-c1cccc(N=S(C)(C)=O)n1` [Example 10, 1-(6-{[Dimethyl(oxo)-λ^6-sulfanylidene]amino}pyridine-2-yl)-6-{[4-(4-ethylpiperazin-1-yl)phenyl]amino}-2-(prop-2-en-1-yl)-1H,2H,3H-pyrazolo[3,4-d]pyrimidin-3-one], the IC50 was determined as 0.9 nM.
Turning to `CCCn1c(=O)c2cnc(Nc3ccc(N4CCN(C)CC4)cc3)nc2n1-c1cccc(N=S(C)(C)=O)n1` [Example 11, 1-(6-{[Dimethyl(oxo)-λ^6-sulfanylidene]amino}pyridine-2-yl)-6-{[4-(4-methylpiperazin-1-yl)phenyl]amino}-2-propyl-1H,2H,3H-pyrazolo[3,4-d]pyrimidin-3-one], the IC50 stood at 1.2 nM.
Next, `C=CCn1c(=O)c2cnc(Nc3ccc(C4CCNCC4)cc3)nc2n1-c1cccc(N=S(C)(C)=O)n1` [Example 13, 1-(6-{[Dimethyl(oxo)-λ^6-sulfanylidene]amino}pyridine-2-yl)-6-{[4-(piperidin-4-yl)phenyl]amino}-2-(prop-2-en-1-yl)-1H,2H,3H-pyrazolo[3,4-d]pyrimidin-3-one]: 1.2 nM.
